According to patent US8299277B2, “Radiation protection drug containing tocopherol or tocotrienol compound ester derivative as active ingredient” (priority 2006, dated 2012):

Tested on: male C3H mice irradiated with X-rays
Assay: 30-day survival of mice after X-ray irradiation (radiation protection)
Type: in vivo
Protocol: Seven to thirteen male C3H mice aged 10 weeks (body weight: 25-28 g) per group were irradiated with X-rays (7.5-8.5 Gy) and their survival rate was determined 30 days after the irradiation. To each of drug-treated groups was intraperitoneally or subcutaneously administered 0.5% methylcellulose solution (0.3 ml) containing d-γ-tocopherol-N,N-dimethylglycine ester hydrochloride in an amount of 10-300 mg/Kg, before or after the irradiation. To a control group was intraperitoneally administered 0.5% methylcellulose solution in a volume of 0.3 ml per mouse.
Eight to eleven male C3H mice aged 10 weeks (body weight: 25-28 g) per group were irradiated with X-rays (7.5 Gy) and their survival rate was measured 30 days after the irradiation. To drug-treated groups was intraperitoneally administered 0.5% methylcellulose solution (0.3 ml) containing d-α-tocopherol-N,N-dimethylglycine ester hydrochloride, d-γ- or d-α-tocotrienol-N,N-dimethylglycine ester hydrochloride, d-γ- or dl-α-tocopherol phosphate disodium salt, or d-γ-tocopherol-N-methyl-L-proline ester hydrochloride, respectively, in an amount of 100 mg/Kg, immediately after the irradiation. To a control group was intraperitoneally administered 0.5% methylcellulose solution in a volume of 0.3 ml per mouse.

[1] = 100 mg/kg i.p., 7.5 Gy X-rays, administered immediately after irradiation, C3H mice (Table 2)

## Cc1c(C)c2c(c(C)c1OC(=O)CN(C)C)CCC(C)(CCCC(C)CCCC(C)CCCC(C)C)O2.Cl (stereo not drawn) [d-α-tocopherol-N,N-dimethylglycine ester hydrochloride]
[1]
  Survival rate after 30 days (%): 95%

## Cc1c(C)c2c(c(C)c1OP(=O)([O-])[O-])CCC(C)(CCCC(C)CCCC(C)CCCC(C)C)O2.[Na+].[Na+] (racemic) [dl-α-Tocopherol phosphate disodium salt]
[1]
  Survival rate after 30 days (%): 40%

## Cc1c(OC(=O)[C@@H]2CCCN2C)cc2c(c1C)OC(C)(CCCC(C)CCCC(C)CCCC(C)C)CC2.Cl (stereo partly drawn) [d-γ-tocopherol-L-N-methylproline ester hydrochloride]
[1]
  Survival rate after 30 days (%): 90%

## CC(C)=CCCC(C)=CCCC(C)=CCCC1(C)CCc2c(C)c(OC(=O)CN(C)C)c(C)c(C)c2O1.Cl (stereo not drawn) [d-α-Tocotrienol-N,N-dimethylglycine ester hydrochloride]
[1]
  Survival rate after 30 days (%): 91%

## CC(C)=CCCC(C)=CCCC(C)=CCCC1(C)CCc2cc(OC(=O)CN(C)C)c(C)c(C)c2O1.Cl (stereo not drawn) [d-γ-Tocotrienol-N,N-dimethylglycine ester hydrochloride]
[1]
  Survival rate after 30 days (%): 85%

## Cc1c(OP(=O)([O-])[O-])cc2c(c1C)OC(C)(CCCC(C)CCCC(C)CCCC(C)C)CC2.[Na+].[Na+] (stereo not drawn) [d-γ-Tocopherol phosphate disodium salt]
[1]
  Survival rate after 30 days (%): 70%

## Cc1c(OC(=O)CN(C)C)cc2c(c1C)OC(C)(CCCC(C)CCCC(C)CCCC(C)C)CC2.Cl (stereo not drawn) [d-γ-tocopherol-N,N-dimethylglycine ester hydrochloride]
10 mg/kg i.p., 7.5 Gy X-rays, administered immediately after irradiation, C3H mice
  Survival rate after 30 days (%): 10%
20 mg/kg i.p., 7.5 Gy X-rays, administered immediately after irradiation, C3H mice
  Survival rate after 30 days (%): 60%
50 mg/kg i.p., 7.5 Gy X-rays, administered immediately after irradiation, C3H mice
  Survival rate after 30 days (%): 85%
100 mg/kg S.C. administration, 7.5 Gy X-rays, administered immediately after irradiation, C3H mice
  Survival rate after 30 days (%): 85%
100 mg/kg i.p., 7.5 Gy X-rays, administered 30 min. before irradiation, C3H mice
  Survival rate after 30 days (%): 60%
100 mg/kg i.p., 7.5 Gy X-rays, administered 1 hr. after irradiation, C3H mice
  Survival rate after 30 days (%): 88%
100 mg/kg i.p., 7.5 Gy X-rays, administered 10 hrs. after irradiation, C3H mice
  Survival rate after 30 days (%): 75%
100 mg/kg i.p., 7.5 Gy X-rays, administered 24 hrs. after irradiation, C3H mice
  Survival rate after 30 days (%): 40%
100 mg/kg i.p., 7.5 Gy X-rays, administered immediately after irradiation, C3H mice (Table 1)
  Survival rate after 30 days (%): 98%
100 mg/kg i.p., 7.5 Gy X-rays, administered immediately before irradiation, C3H mice
  Survival rate after 30 days (%): 80%
100 mg/kg i.p., 8 Gy X-rays, administered immediately after irradiation, C3H mice
  Survival rate after 30 days (%): 78%
100 mg/kg i.p., 8.5 Gy X-rays, administered immediately after irradiation, C3H mice
  Survival rate after 30 days (%): 37%
300 mg/kg i.p., 7.5 Gy X-rays, administered immediately after irradiation, C3H mice
  Survival rate after 30 days (%): 55%
